This is an account of results in US11401255B2, “Small molecule activators of Parkin enzyme function” (Mayo Foundation for Medical Education and Research, priority 2016, dated 2022).

One data set addresses FLAG-Parkin C431S (Homo sapiens (Human), UniProt O60260, C431S). In words: Ub-charging of FLAG-Parkin C431S (MSD assay). It is filed as cell-based. Particulars: 5 μM, 2 h before 3.5 μM CCCP. Here is the method: Ubiquitin charging of Parkin was monitored by ELISA-like MesoScale Discovery assay that uses electrochemiluminescence. Plates were coated with Flag antibody and incubated with lysates from 3×FLAG-Parkin C431S cells that had been pretreated for 2 h with 5 μM of Compounds 1, 2, 3, 4, and 31 or DMSO (left, −) before incubating them for another 2 h with (+) or without (−) low-dose (3.5 μM) CCCP. Positive control (PC) cells were treated with 10 μM CCCP. After washing, pS65-Ub antibody was added together with a sulfo-tagged anti-rabbit antibody. Values were normalized to the PC (10 μM CCCP) and negative control (−). Statistical analysis was performed by one-way ANOVA with Tukey's post-hoc test. ****, p<0.0001.
For ELISA assays, 96-well standard bind plates (Mesoscale Discovery) were coated with antibodies (FLAG, Sigma, F3165 or pSer65-Ub, both 1:250) in bicarbonate buffer (15 mM Na2CO3, 35 mM NaHCO3, pH 9.4) overnight and blocked with 5% BSA in TBS containing 0.02% Tween-20 (TBST). For Parkin Ub-charging, cell lysates were prepared in RIPA buffer (50 mM Tris pH 8.0, 150 mM NaCl, 1% NP-40, 0.5% deoxycholate, 0.1% sodium dodecyl sulphate (SDS)). 25 μg of lysates were added to the plates and incubated for 2 h. To quantify pSer65-Ub, cell lysates were prepared in NP-40 buffer (50 mM Tris pH 7.6, 150 mM NaCl, and 0.5% NP-40) and diluted to 0.18% NP-40 with 1% BSA in TBST. 6.25 μg of lysates were added to the plates overnight and incubated at 4° C. After primary antibody incubation, plates were washed and incubated with mouse detection antibodies (Ub, CST, #3933 or Ub, Millipore, MAB 150 both 1:250) for 1 h at RT. Secondary sulfo-tag conjugated antibodies were incubated for 1 h in 1% BSA/TBST before plates were measured in 2× READ buffer using a Mesoscale Discovery Sector Imager 2400 (both Mesoscale Discovery).

For the next data set, the system named is TA 100. Description: Ames Test, strain TA 100. The source says:
(§1) The test used amino acid-dependent strains of Salmonella typhimurium and Escherichia coli to detect point mutations which involved substitution, addition or deletion of one or a few DNA base pairs. Point mutations were introduced in the histidine (Salmonella typhimurium) or the tryptophan (Escherichia coli) operon, making the tester strains incapable of producing these amino acids. The test detected mutations that revert the mutations present in the bacteria, restoring the functional capability to synthesize histidine or tryptophan. The revertant bacteria were detected by the ability to grow in the absence of the amino acid required by the parent test strain. A mutagenic potential of a tested compound was assessed by exposing these bacterial strains to different concentrations of the compounds and estimating number of revertant colonies grown in the absence (trace quantities) of the amino acid.
(§2) DMSO was used as the negative control.
(§3) For each experiment, tester strain cultures were grown overnight in Oxoid nutrient broth #2 at 37° C. with shaking at 235 rpm to a density of 1-2×10^9 colony forming units/mL (OD540˜2).
(§4) The tester strain (10 μL of night culture) was mixed with the test agent (10 µL of the DMSO stock) and GM liquid medium (30 μL). The obtained mixture was incubated at room temperature for 5 min in a sterile 1.5 mL tube. Then, to the tube was added 200 μL of molten top agar stored at 44° C. to prevent solidifying. After mixing with a pipette, the mixture was poured onto the surface of a GM agar plate (2.0 mL of GM agar per plate). After solidifying the top agar, the plate was inverted and incubated at 37° C. for 48 hours. Then, results were expressed as number of revertant colonies per plate.

In a further data set the test system is HeLa cells. In words: Mitochondrial membrane potential (JC-10 assay). It is filed as cell-based, human. To be noted: 5 μM, compared to DMSO control. Here is the method:
In order to exclude compounds that diminish the mitochondrial membrane potential, a JC-10 assay was used. HeLa cells were plated in 384-well plates and treated with different doses of CCCP or with 5 μM of Compounds 1, 2, 3, 4, and 31 as indicated for 2 h. The JC-10 dye was added to the live cells and cells are stained for 45 minutes. The plates were then measured with a fluorescent plate reader. JC-10 is a mitochondrial dye that emits red fluorescence in the presence of mitochondrial membrane potential. The fluorescence will change to green in the absence of mitochondrial membrane potential. […] Shown are average values of 3 independent experiments. Statistical analysis was performed by one-way ANOVA with Tukey's post-hoc test. ***, p<0.0005.
Mitochondrial depolarization was assessed using a JC10 assay kit (Sigma, MAK159). HeLa Parkin cells were seeded with […] in 20 μL volume into 384-well plates with clear bottom. The following day 5 μL of CCCP or compounds were added as 5× solutions. Equal volume of DMSO served as a negative control. Cells were incubated for 4 h before 12.5 μL of JC10 dye diluted in buffer A was added to the wells. One hour later the reaction was stopped with 12.5 μL of buffer B and the plate was measured immediately on a Spectramax M5 plate reader (Molecular devices) with bottom read using dual fluorescence (green: Ex 485 nm, Em 538 nm, cut-off at 515 nm; red: Ex 544 nm, Em 590 nm, cut-off at 570 nm). Mitochondrial depolarization was assessed by building the green to red ratio.

The subject of the next data set is TA 1537. In words: Ames Test, strain TA 1537.
Excerpt: as §1, §2, §3, §4

Where [1] appears, read: TA 1537, 50 μM (row printed 100; conc. column shifted).
[2] abbreviates: TA 1537, 100 μM (row printed 200; conc. column shifted).
The mark [3] stands for this setting: TA 1537, 200 μM (row printed 300; conc. column shifted).

As for `O=C(Cn1cnc2c1CCCC2)Nc1ccc(-c2ccccc2)cc1` [Compound 1], the “Ub-charging of FLAG-Parkin C431S (MSD assay)” value (shortened to “Ub-charging”) on FLAG-Parkin C431S was “enhanced Ub-charging”. The “Fold increase (over baseline)” value in the data set on TA 100 (TA 100, 50 μM) is listed as 0; in the data set with TA 100 (TA 100, 100 μM) it was 0; with TA 100 (TA 100, 200 μM), 0; in the data set on TA 1537 (setting [1]), 0.23; with TA 1537 (setting [2]), 0.45; in the data set on TA 1537 (setting [3]), 0.45. In addition, the “Mean ± SD” value with TA 100 (TA 100, 50 μM) is 0 ± 0 revertant colonies per plate; in the data set with TA 100 (TA 100, 100 μM), 0 ± 0 revertant colonies per plate; in the data set with TA 100 (TA 100, 200 μM), 0 ± 0 revertant colonies per plate; in the data set on TA 1537 (setting [1]) it was 0.5 ± 0.7 revertant colonies per plate; in the data set on TA 1537 (setting [2]), 1 ± 1.41 revertant colonies per plate. The “effect on JC-10 (mitochondrial depolarization)” value (shortened to “effect”) in the data set with HeLa cells is reported as “did not show an effect”.
With `CC(C)c1nccn1CC(=O)Nc1ccc(-c2ccccc2)cc1` [Compound 2], the “Ub-charging” value on FLAG-Parkin C431S is “enhanced Ub-charging”. Besides, the “Fold increase (over baseline)” value in the data set with TA 100 (TA 100, 50 μM) stood at 1.37; in the data set with TA 100 (TA 100, 100 μM), 0.97; with TA 100 (TA 100, 200 μM), 1.61; in the data set with TA 1537 (setting [1]) it was 0.68; in the data set with TA 1537 (setting [2]) it was 0.45; with TA 1537 (setting [3]), 0.23. Moreover, the “Mean ± SD” value in the data set on TA 100 (TA 100, 50 μM) is 8.5 ± 6.36 revertant colonies per plate; in the data set on TA 100 (TA 100, 100 μM), 6 ± 2.83 revertant colonies per plate; in the data set on TA 100 (TA 100, 200 μM) it was 10 ± 0 revertant colonies per plate; in the data set on TA 1537 (setting [1]), 1.5 ± 2.12 revertant colonies per plate; in the data set with TA 1537 (setting [2]), 1 ± 0 revertant colonies per plate. Further, the “effect” value in the data set on HeLa cells is on record as “did not show an effect”.
Consider `CC(C)(C)Sc1ccc(NC(=O)Cn2ccnc2)cc1` [Compound 3], for which the “Ub-charging” value at FLAG-Parkin C431S is “enhanced Ub-charging”. Also, the “Fold increase (over baseline)” value with TA 100 (TA 100, 50 μM) is 0.85; with TA 100 (TA 100, 100 μM), greater than 32; with TA 100 (TA 100, 200 μM), greater than 48; in the data set with TA 1537 (setting [1]), 0.45; in the data set with TA 1537 (setting [2]) it was 0.23; in the data set on TA 1537 (setting [3]), 5.68. Also, the “Mean ± SD” value is recorded as 5.5 ± 0.7 revertant colonies per plate with TA 100 (TA 100, 50 μM); >200 revertant colonies per plate in the data set with TA 100 (TA 100, 100 μM); >300 revertant colonies per plate in the data set with TA 100 (TA 100, 200 μM); 1 ± 1.41 revertant colonies per plate in the data set on TA 1537 (setting [1]); 0.5 ± 0.7 revertant colonies per plate in the data set with TA 1537 (setting [2]). In the data set on TA 100 (TA 100, both 100 and 200 μM), the “mutagenic activity” value is listed as “mutagenic activity”. The “effect” value with HeLa cells is “did not show an effect”.
`O=C(Cn1ccnc1-c1ccccn1)Nc1ccc(-c2ccccc2)cc1` [Compound 4]: at FLAG-Parkin C431S, the “Ub-charging” value is “enhanced Ub-charging”. Further, the “Fold increase (over baseline)” value is given as 0.89 in the data set with TA 100 (TA 100, 50 μM); 1.2 in the data set on TA 100 (TA 100, 100 μM); 0.65 with TA 100 (TA 100, 200 μM); 0.23 with TA 1537 (setting [1]); 0 in the data set with TA 1537 (setting [2]); 0.23 with TA 1537 (setting [3]). The “Mean ± SD” value in the data set with TA 100 (TA 100, 50 μM) is listed as 5.5 ± 2.12 revertant colonies per plate; in the data set on TA 100 (TA 100, 100 μM) it was 7.5 ± 3.54 revertant colonies per plate; in the data set with TA 100 (TA 100, 200 μM), 4 ± 1.41 revertant colonies per plate; with TA 1537 (setting [1]), 0.5 ± 0.7 revertant colonies per plate; in the data set with TA 1537 (setting [2]), 0 ± 0 revertant colonies per plate. Moreover, the “effect” value in the data set with HeLa cells is reported as “did not show an effect”.
For `Cc1nc2c(c(N3CCCN(Cc4ccccc4)CC3)n1)CCCC2` [Compound 31], at FLAG-Parkin C431S, the “Ub-charging” value is “enhanced Ub-charging”. The “Fold increase (over baseline)” value worked out at 1.04 in the data set with TA 100 (TA 100, 50 μM); 0.97 in the data set on TA 100 (TA 100, 100 μM); 0.97 in the data set with TA 100 (TA 100, 200 μM); 0.45 in the data set with TA 1537 (setting [1]); 0 in the data set on TA 1537 (setting [2]); 0.23 in the data set on TA 1537 (setting [3]). For the same compound, the “Mean ± SD” value is listed as 6.5 ± 0.7 revertant colonies per plate in the data set on TA 100 (TA 100, 50 μM); 6 ± 0 revertant colonies per plate in the data set with TA 100 (TA 100, 100 μM); 6 ± 1.41 revertant colonies per plate in the data set with TA 100 (TA 100, 200 μM); 1 ± 1.41 revertant colonies per plate in the data set with TA 1537 (setting [1]); 0 ± 0 revertant colonies per plate in the data set on TA 1537 (setting [2]). The “effect” value with HeLa cells is “significantly increased depolarization of mitochondria”.
